Data on 6 compounds can be found in ChEMBL document CHEMBL3272143, “Synthesis of heteroaromatic potential beta-adrenergic antagonists by the glycidol route” (1978).

In general, ED50 refers to the dose that gives a 50% effect, or the effect in half of the subjects. Read a high ED50 as weaker potency. For orientation: inhibition in vivo means the relative decrease from the control value, in per cent. Low values mean a weak effect, high ones a strong effect.

Holding throughout (type): functional
Test [1] has as its system Canis familiaris. The test is described as follows: Inhibition of isoproterenol-induced decrease in diastolic blood pressure in iv dosed bilaterally vagotomized open chest mongrel dog model administered 10 to 20 mins prior to and following isoproterenol challenge. The conditions noted are these: Canis lupus familiaris, Artery.
The subject of test [2] is Canis familiaris. Kind of test: Inhibition of isoproterenol-induced decrease in diastolic blood pressure in bilaterally vagotomized open chest mongrel dog model at 14.58 mg/kg, iv administered 10 to 20 mins prior to and following isoproterenol challenge. The settings on record: Canis lupus familiaris, Artery.
The subject of test [3] is Canis familiaris. Kind of test: Inhibition of isoproterenol-induced increase in heart rate in bilaterally vagotomized open chest mongrel dog model at 0.1 mg/kg, iv administered 10 to 20 mins prior to and following isoproterenol challenge. The settings on record: Canis lupus familiaris.
Test [4] has as its system Canis familiaris. Kind of test: Inhibition of isoproterenol-induced decrease in diastolic blood pressure in bilaterally vagotomized open chest mongrel dog model at 0.1 mg/kg, iv administered 10 to 20 mins prior to and following isoproterenol challenge. The conditions noted are these: Canis lupus familiaris, Artery.
Test [5] deals with Canis familiaris. The test is described as follows: Inhibition of isoproterenol-induced increase in heart rate in bilaterally vagotomized open chest mongrel dog model at 14.58 mg/kg, iv administered 10 to 20 mins prior to and following isoproterenol challenge. The settings on record: Canis lupus familiaris.
In test [6] the test system is Canis familiaris. Kind of test: Inhibition of isoproterenol-induced increase in heart rate in bilaterally vagotomized open chest mongrel dog model at 0.42 mg/kg, iv administered 10 to 20 mins prior to and following isoproterenol challenge. The conditions noted are these: Canis lupus familiaris.
For test [7], the system named is Canis familiaris. Kind of test: Inhibition of isoproterenol-induced increase in heart rate in bilaterally vagotomized open chest mongrel dog model at 1.42 mg/kg, iv administered 10 to 20 mins prior to and following isoproterenol challenge. The settings on record: Canis lupus familiaris.
The test system of test [8] is Canis familiaris. The test is described as follows: Inhibition of isoproterenol-induced decrease in diastolic blood pressure in bilaterally vagotomized open chest mongrel dog model at 4.58 mg/kg, iv administered 10 to 20 mins prior to and following isoproterenol challenge. The settings on record: Canis lupus familiaris, Artery.
Test [9] concerns Canis familiaris. The test is described as follows: Inhibition of isoproterenol-induced increase in heart rate in iv dosed bilaterally vagotomized open chest mongrel dog model administered 10 to 20 mins prior to and following isoproterenol challenge. The conditions noted are these: Canis lupus familiaris.
Test [10] deals with Canis familiaris. Kind of test: Inhibition of isoproterenol-induced increase in heart rate in bilaterally vagotomized open chest mongrel dog model at 4.58 mg/kg, iv administered 10 to 20 mins prior to and following isoproterenol challenge. The conditions noted are these: Canis lupus familiaris.
Test [11] has as its system Canis familiaris. The test is described as follows: Inhibition of isoproterenol-induced decrease in diastolic blood pressure in bilaterally vagotomized open chest mongrel dog model at 0.42 mg/kg, iv administered 10 to 20 mins prior to and following isoproterenol challenge. The settings on record: Canis lupus familiaris, Artery.
Test [12] has as its system Canis familiaris. Kind of test: Inhibition of isoproterenol-induced decrease in diastolic blood pressure in bilaterally vagotomized open chest mongrel dog model at 1.42 mg/kg, iv administered 10 to 20 mins prior to and following isoproterenol challenge. The settings on record: Canis lupus familiaris, Artery.
Test [13] has as its system Canis familiaris. The test is described as follows: Inhibition of isoproterenol-induced decrease in diastolic blood pressure in bilaterally vagotomized open chest mongrel dog model at 0.45 mg/kg, iv administered 10 to 20 mins prior to and following isoproterenol challenge. The conditions noted are these: Canis lupus familiaris, Artery.
Test [14] has as its system Canis familiaris. Kind of test: Inhibition of isoproterenol-induced decrease in diastolic blood pressure in bilaterally vagotomized open chest mongrel dog model at 0.13 mg/kg, iv administered 10 to 20 mins prior to and following isoproterenol challenge. The conditions noted are these: Canis lupus familiaris, Artery.
Test [15] deals with Canis familiaris. Kind of test: Inhibition of isoproterenol-induced decrease in diastolic blood pressure in bilaterally vagotomized open chest mongrel dog model at 4.61 mg/kg, iv administered 10 to 20 mins prior to and following isoproterenol challenge. The conditions noted are these: Canis lupus familiaris, Artery.
The test system of test [16] is Canis familiaris. Kind of test: Inhibition of isoproterenol-induced increase in heart rate in bilaterally vagotomized open chest mongrel dog model at 0.03 mg/kg, iv administered 10 to 20 mins prior to and following isoproterenol challenge. The settings on record: Canis lupus familiaris.
Test [17] deals with Canis familiaris. The test is described as follows: Inhibition of isoproterenol-induced decrease in diastolic blood pressure in bilaterally vagotomized open chest mongrel dog model at 1.45 mg/kg, iv administered 10 to 20 mins prior to and following isoproterenol challenge. The conditions noted are these: Canis lupus familiaris, Artery.
Test [18] relates to Canis familiaris. Kind of test: Inhibition of isoproterenol-induced decrease in diastolic blood pressure in bilaterally vagotomized open chest mongrel dog model at 0.03 mg/kg, iv administered 10 to 20 mins prior to and following isoproterenol challenge. The conditions noted are these: Canis lupus familiaris, Artery.
Test [19] has as its system Canis familiaris. Kind of test: Inhibition of isoproterenol-induced increase in heart rate in bilaterally vagotomized open chest mongrel dog model at 1.45 mg/kg, iv administered 10 to 20 mins prior to and following isoproterenol challenge. The conditions noted are these: Canis lupus familiaris.
Test [20] relates to Canis familiaris. Kind of test: Inhibition of isoproterenol-induced increase in heart rate in bilaterally vagotomized open chest mongrel dog model at 0.45 mg/kg, iv administered 10 to 20 mins prior to and following isoproterenol challenge. The settings on record: Canis lupus familiaris.
In test [21] the test system is Canis familiaris. The test is described as follows: Inhibition of isoproterenol-induced increase in heart rate in bilaterally vagotomized open chest mongrel dog model at 4.61 mg/kg, iv administered 10 to 20 mins prior to and following isoproterenol challenge. The settings on record: Canis lupus familiaris.
In test [22] the test system is Canis familiaris. The test is described as follows: Inhibition of isoproterenol-induced increase in heart rate in bilaterally vagotomized open chest mongrel dog model at 0.13 mg/kg, iv administered 10 to 20 mins prior to and following isoproterenol challenge. The conditions noted are these: Canis lupus familiaris.

With `CC(C)(C)NCC(O)COc1ncns1` (configuration not stated), the ED50 with Canis familiaris [1] worked out at 5.7 mg/kg; in the test with Canis familiaris [9], 0.4 mg/kg. The inhibition in vivo at 14.58 mg/kg was found to be 76.5% in the test with Canis familiaris [2] and 97.5% in the test with Canis familiaris [5]. The inhibition in vivo at 0.1 mg/kg came to 23.5% in the test on Canis familiaris [3] and 3% in the test on Canis familiaris [4]. Besides, the inhibition in vivo at 0.42 mg/kg in the test with Canis familiaris [6] was determined as 49.5%; in the test with Canis familiaris [11], 1%. Further, the results for the inhibition in vivo at 1.42 mg/kg with Canis familiaris [7] and with Canis familiaris [12] were 70% and 13.5%, respectively. In addition, the inhibition in vivo at 4.58 mg/kg was 50% in the test on Canis familiaris [8] and 91% in the test with Canis familiaris [10].

`Cc1nsc(OCC(O)CNC(C)(C)C)n1` (configuration not stated): the results for the ED50 in the test with Canis familiaris [1] and in the test with Canis familiaris [9] were 3.5 mg/kg and 3.6 mg/kg, respectively. Besides, the inhibition in vivo at 14.58 mg/kg with Canis familiaris [2] stood at 85.3%; in the test on Canis familiaris [5], 92.3%. Besides, the inhibition in vivo at 0.1 mg/kg in the test with Canis familiaris [3] turned out to be 15%; in the test with Canis familiaris [4] it was 7.7%. In addition, the inhibition in vivo at 0.42 mg/kg in the test on Canis familiaris [6] was determined as 24.2%; with Canis familiaris [11] it was 12.8%. Besides, the inhibition in vivo at 1.42 mg/kg with Canis familiaris [7] came out at 39.5%; in the test with Canis familiaris [12], 35.5%. In addition, the values for the inhibition in vivo at 4.58 mg/kg in the test on Canis familiaris [8] and with Canis familiaris [10] were 55.5% and 59.8%, respectively.

As for `CC(C)(C)NCC(O)COc1nc(-c2ccccc2)ns1` (configuration not stated), the ED50 in the test on Canis familiaris [1] was found to be 4.9 mg/kg; in the test on Canis familiaris [9], 19.3 mg/kg. Moreover, the results for the inhibition in vivo at 14.58 mg/kg in the test on Canis familiaris [2] and in the test with Canis familiaris [5] were 100% and 68%, respectively. Also, the results for the inhibition in vivo at 0.1 mg/kg with Canis familiaris [3] and with Canis familiaris [4] were 7% and 3.7%, respectively. In addition, the inhibition in vivo at 0.42 mg/kg in the test with Canis familiaris [6] worked out at 5.7%; with Canis familiaris [11], 5.3%. Further, the inhibition in vivo at 1.42 mg/kg in the test on Canis familiaris [7] amounted to 9.5%; in the test with Canis familiaris [12], 16.5%. Moreover, the inhibition in vivo at 4.58 mg/kg in the test on Canis familiaris [8] was 41.5%; in the test on Canis familiaris [10], 23.8%.

Consider `CC(C)NCC(O)COc1cc(Cl)nc(-c2ccccc2)n1` (configuration not stated), for which the ED50 in the test with Canis familiaris [1] and in the test on Canis familiaris [9] was more than 14.6 mg/kg in each case. The inhibition in vivo at 14.58 mg/kg amounted to 19% in the test with Canis familiaris [2] and 49% in the test on Canis familiaris [5]. The results for the inhibition in vivo at 0.1 mg/kg in the test with Canis familiaris [3] and in the test with Canis familiaris [4] were 3% and 5%, respectively. Moreover, the inhibition in vivo at 0.42 mg/kg in the test with Canis familiaris [6] is 6%; with Canis familiaris [11] it was 16.5%. For the same compound, the inhibition in vivo at 1.42 mg/kg in the test with Canis familiaris [7] was 18%; in the test with Canis familiaris [12] it was 10.3%. The inhibition in vivo at 4.58 mg/kg came out at 21% in the test on Canis familiaris [8] and 16.7% in the test with Canis familiaris [10].

Turning to `CC(C)(C)NCC(O)COc1nnnn1-c1ccccc1` (configuration not stated), the ED50 amounted to 1.5 mg/kg with Canis familiaris [1] and 3 mg/kg in the test with Canis familiaris [9]. The results for the inhibition in vivo at 14.58 mg/kg with Canis familiaris [2] and in the test with Canis familiaris [5] were 98.7% and 91%, respectively. The values for the inhibition in vivo at 0.1 mg/kg in the test on Canis familiaris [3] and in the test with Canis familiaris [4] were 5.7% and 6.7%, respectively. The inhibition in vivo at 0.42 mg/kg was 10.5% with Canis familiaris [6] and 21.2% in the test on Canis familiaris [11]. Further, the inhibition in vivo at 1.42 mg/kg was 32.5% with Canis familiaris [7] and 44.8% in the test with Canis familiaris [12]. In addition, the results for the inhibition in vivo at 4.58 mg/kg in the test with Canis familiaris [8] and with Canis familiaris [10] were 76.2% and 63%, respectively.

With `CC(C)NCC(O)COc1cccc2ccccc12` (configuration not stated) [PROPRANOLOL], the results for the median effective dose (ED50) in the test on Canis familiaris [1] and in the test with Canis familiaris [9] were 0.06 mg/kg and 0.09 mg/kg, respectively. In addition, the values for the inhibition in vivo at 0.45 mg/kg in the test on Canis familiaris [13] and in the test on Canis familiaris [20] were 80.8% and 85.2%, respectively. Moreover, the inhibition in vivo at 0.13 mg/kg in the test on Canis familiaris [14] amounted to 63.5%; in the test with Canis familiaris [22], 62%. Further, the inhibition in vivo at 4.61 mg/kg in the test on Canis familiaris [15] came out at 96.6%; with Canis familiaris [21] it was 98.4%. Also, the inhibition in vivo at 0.03 mg/kg with Canis familiaris [16] is 24.7%; in the test on Canis familiaris [18], 40.5%. Also, the inhibition in vivo at 1.45 mg/kg with Canis familiaris [17] is 90.7%; in the test on Canis familiaris [19] it was 95.8%.
